According to ChEMBL document CHEMBL1201862, “PubChem BioAssay data set” (2004):
Calls of active or inactive are those of the source.

Columns and labels:
[1] = target: Disintegrin and metalloproteinase domain-containing protein 17 (Homo sapiens, UniProt P78536); experiment: exosite inhibitors of ADAM17, dose response, biochemical (AID 743260)
[2] = target: T1, G-protein coupled receptor 55 (Homo sapiens, UniProt Q9Y2T6); experiment: GPR55 agonists via beta-arrestin recruitment, primary screen, imaging, U2OS cells, beta-arrestin-GFP redistribution (AID 1961); assay type: functional
T1 sequence (Q9Y2T6 whole entry): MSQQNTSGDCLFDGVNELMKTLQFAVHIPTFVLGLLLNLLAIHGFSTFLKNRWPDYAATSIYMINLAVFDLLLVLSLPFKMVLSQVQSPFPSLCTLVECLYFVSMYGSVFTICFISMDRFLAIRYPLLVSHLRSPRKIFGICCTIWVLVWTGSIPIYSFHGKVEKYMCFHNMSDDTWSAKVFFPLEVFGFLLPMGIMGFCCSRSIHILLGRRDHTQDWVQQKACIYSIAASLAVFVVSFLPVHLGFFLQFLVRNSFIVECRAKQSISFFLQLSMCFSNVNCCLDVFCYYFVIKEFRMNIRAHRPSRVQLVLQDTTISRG

[3] = ADAM10 protease inhibitors, dose response, selectivity assay for ADAM17 exosite inhibitor project, biochemical, FRET peptide substrate, recombinant human ADAM10 (AID 743259);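 also: ADAM10 enzyme cleaving a FRET peptide substrate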
[4] = target: Peroxisome proliferator-activated receptor gamma/Nuclear receptor coactivator 3 (Homo sapiens, UniProt P37231); assay type: functional;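 also: agonist potency for raising coactivator recruitment to the receptor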
[5] = target: Peroxisome proliferator-activated receptor gamma/Nuclear receptor coactivator 2 (Homo sapiens, UniProt P37231); assay type: functional;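 also: agonist potency for raising coactivator recruitment to the receptor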
Trypsin = Trypsin (Sus scrofa, UniProt P00761); experiment: porcine trypsin inhibitors, dose response, selectivity assay for Rce1 protease inhibitor project, biochemical, quenched peptide fluorescence, cherry-pick (AID 488789)
Chain of Trypsin (P00761 whole entry): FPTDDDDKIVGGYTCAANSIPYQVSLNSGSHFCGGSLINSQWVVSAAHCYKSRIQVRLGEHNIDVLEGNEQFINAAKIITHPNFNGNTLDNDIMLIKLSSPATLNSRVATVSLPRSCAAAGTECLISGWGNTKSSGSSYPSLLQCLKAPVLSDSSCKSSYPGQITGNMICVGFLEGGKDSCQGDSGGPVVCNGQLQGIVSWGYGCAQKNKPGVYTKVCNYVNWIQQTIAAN

[6] = target: Peroxisome proliferator-activated receptor gamma/Nuclear receptor coactivator 1 (Homo sapiens, UniProt P37231); assay type: functional;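 also: agonist potency as compounds enhance coactivator SRC-1 recruitment to PPARgamma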
Chain of Peroxisome proliferator-activated receptor gamma/Nuclear receptor coactivator 1 (P37231 whole entry): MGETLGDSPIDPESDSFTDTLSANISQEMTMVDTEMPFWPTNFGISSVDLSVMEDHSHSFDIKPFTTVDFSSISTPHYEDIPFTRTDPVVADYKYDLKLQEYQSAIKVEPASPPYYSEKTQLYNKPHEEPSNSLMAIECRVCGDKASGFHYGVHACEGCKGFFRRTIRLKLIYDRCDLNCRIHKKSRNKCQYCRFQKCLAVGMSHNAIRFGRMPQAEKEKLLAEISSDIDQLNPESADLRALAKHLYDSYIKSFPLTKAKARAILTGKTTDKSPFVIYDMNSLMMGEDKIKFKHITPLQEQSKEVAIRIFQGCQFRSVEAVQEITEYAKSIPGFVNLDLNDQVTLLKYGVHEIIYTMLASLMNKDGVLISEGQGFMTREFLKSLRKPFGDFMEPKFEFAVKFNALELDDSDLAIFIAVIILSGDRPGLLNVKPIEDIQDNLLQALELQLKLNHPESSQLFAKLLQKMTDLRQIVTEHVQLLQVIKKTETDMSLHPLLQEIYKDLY
Chain of Peroxisome proliferator-activated receptor gamma/Nuclear receptor coactivator 1 (Q15788 whole entry, further chain): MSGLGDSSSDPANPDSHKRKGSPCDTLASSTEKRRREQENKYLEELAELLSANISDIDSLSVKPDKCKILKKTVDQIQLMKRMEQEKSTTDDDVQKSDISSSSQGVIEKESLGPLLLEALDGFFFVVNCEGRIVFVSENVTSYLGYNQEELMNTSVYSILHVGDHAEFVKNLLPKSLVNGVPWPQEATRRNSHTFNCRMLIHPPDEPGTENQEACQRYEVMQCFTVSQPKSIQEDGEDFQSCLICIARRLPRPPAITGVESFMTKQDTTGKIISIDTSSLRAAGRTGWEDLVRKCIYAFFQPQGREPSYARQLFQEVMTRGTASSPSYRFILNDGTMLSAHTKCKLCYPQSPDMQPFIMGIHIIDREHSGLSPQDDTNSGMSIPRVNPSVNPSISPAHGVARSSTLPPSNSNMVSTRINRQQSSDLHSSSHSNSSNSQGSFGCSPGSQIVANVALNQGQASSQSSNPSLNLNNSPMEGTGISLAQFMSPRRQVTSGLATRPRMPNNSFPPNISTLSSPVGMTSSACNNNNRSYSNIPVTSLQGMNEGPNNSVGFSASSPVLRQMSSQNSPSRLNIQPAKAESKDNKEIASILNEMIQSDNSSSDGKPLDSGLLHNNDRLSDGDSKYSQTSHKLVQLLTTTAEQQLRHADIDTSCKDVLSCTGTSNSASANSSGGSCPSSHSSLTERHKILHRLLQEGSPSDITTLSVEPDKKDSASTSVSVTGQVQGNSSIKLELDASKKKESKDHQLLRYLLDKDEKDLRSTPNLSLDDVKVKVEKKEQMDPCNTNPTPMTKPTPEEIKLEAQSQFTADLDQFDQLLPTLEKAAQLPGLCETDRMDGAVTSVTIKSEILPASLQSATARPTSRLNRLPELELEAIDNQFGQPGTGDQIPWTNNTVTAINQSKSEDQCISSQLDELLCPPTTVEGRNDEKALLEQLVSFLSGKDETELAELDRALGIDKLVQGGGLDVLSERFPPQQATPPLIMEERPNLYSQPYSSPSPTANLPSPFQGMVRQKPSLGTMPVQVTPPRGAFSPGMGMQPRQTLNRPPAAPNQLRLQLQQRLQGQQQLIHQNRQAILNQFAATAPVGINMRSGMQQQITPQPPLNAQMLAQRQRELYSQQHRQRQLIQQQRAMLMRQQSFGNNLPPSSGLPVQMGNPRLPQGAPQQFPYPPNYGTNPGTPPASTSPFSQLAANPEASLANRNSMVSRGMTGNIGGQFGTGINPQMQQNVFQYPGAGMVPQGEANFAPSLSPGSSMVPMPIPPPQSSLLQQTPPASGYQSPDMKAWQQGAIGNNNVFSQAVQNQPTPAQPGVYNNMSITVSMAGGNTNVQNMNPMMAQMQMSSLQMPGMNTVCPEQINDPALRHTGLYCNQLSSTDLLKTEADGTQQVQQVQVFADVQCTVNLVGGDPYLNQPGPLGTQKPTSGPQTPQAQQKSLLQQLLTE

[7] = target: T2, Mannose-6-phosphate isomerase (Homo sapiens, UniProt P34949); experiment: PMI enzyme inhibitors, confirmation, biochemical, fluorescence intensity (AID 1535)
T2 sequence (P34949 whole entry): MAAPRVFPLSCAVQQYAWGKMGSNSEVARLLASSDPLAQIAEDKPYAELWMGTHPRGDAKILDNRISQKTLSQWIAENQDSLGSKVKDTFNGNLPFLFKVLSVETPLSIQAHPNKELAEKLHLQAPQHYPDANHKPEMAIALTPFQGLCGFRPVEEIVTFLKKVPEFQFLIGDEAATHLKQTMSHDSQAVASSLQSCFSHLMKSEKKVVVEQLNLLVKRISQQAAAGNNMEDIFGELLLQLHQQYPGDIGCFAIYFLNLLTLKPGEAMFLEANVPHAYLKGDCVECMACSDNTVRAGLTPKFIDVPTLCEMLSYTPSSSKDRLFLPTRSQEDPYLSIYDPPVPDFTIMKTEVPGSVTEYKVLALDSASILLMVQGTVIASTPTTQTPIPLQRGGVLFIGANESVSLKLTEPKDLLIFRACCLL

Phosphomannomutase 2 = target: T3, Phosphomannomutase 2 (Homo sapiens, UniProt O15305); experiment: Counter screen SAR assay for PMM2 inhibitors via a fluorescence intensity assay. [Related pubchem assays (depositor defined):AID1545, AID1574]
T3 sequence (O15305 whole entry): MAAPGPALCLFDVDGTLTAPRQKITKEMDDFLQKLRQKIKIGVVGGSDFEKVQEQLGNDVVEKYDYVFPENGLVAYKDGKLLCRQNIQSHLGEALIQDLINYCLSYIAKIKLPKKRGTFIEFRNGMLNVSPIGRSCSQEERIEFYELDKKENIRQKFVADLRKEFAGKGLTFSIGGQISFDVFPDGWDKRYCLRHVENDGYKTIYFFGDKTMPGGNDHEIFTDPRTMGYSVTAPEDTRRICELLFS

[8] = target: Phosphoethanolamine/phosphocholine phosphatase (Homo sapiens, UniProt Q8TCT1); experiment: SAR assay for compounds that inhibit PHOSPHO1. [Related pubchem assays (depositor defined):AID1545, AID1565, AID1574]
[9] = target: T4, Alkaline phosphatase, tissue-nonspecific isozyme (Homo sapiens, UniProt P05186); experiment: human TNAP enzyme inhibitors, SAR follow-up, biochemical, luminescent, dose response (AID 1056)
T4 sequence (P05186 whole entry): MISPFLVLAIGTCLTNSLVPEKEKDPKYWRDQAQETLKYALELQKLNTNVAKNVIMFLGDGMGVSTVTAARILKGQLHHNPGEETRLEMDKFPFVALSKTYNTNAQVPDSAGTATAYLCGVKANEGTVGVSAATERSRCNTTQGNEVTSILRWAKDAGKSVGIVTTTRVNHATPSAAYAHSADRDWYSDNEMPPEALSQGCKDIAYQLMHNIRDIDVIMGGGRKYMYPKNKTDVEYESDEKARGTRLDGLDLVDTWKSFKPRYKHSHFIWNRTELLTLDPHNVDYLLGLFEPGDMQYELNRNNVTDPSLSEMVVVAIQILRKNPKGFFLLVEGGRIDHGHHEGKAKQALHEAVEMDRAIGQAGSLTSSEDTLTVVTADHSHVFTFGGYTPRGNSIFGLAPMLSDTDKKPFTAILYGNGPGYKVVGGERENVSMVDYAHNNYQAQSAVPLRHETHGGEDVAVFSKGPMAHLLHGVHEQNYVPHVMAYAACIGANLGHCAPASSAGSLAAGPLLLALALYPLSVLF

[10] = target: Eukaryotic translation initiation factor 4E (Mus musculus, UniProt P63073); experiment: eIF4E–eIF4G protein interaction inhibitors, dose response, biochemical, TR-FRET (AID 855); assay type: functional;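 also: potency for disrupting eIF4E binding to eIF4GI seen as loss of FRET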
Chain of Eukaryotic translation initiation factor 4E (P63073 whole entry): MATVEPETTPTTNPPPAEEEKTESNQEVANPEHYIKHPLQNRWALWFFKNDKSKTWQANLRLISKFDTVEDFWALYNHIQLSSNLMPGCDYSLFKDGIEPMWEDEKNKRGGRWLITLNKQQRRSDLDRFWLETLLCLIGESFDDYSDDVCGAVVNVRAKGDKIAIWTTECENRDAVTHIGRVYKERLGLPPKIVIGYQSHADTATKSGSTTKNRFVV

Cytochrome P450 1A2 = target: T5, Cytochrome P450 1A2 (Homo sapiens, UniProt P05177);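 also: PubChem cytochrome P450 panel assay, CYP1A2 panel member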
T5 sequence (P05177 whole entry): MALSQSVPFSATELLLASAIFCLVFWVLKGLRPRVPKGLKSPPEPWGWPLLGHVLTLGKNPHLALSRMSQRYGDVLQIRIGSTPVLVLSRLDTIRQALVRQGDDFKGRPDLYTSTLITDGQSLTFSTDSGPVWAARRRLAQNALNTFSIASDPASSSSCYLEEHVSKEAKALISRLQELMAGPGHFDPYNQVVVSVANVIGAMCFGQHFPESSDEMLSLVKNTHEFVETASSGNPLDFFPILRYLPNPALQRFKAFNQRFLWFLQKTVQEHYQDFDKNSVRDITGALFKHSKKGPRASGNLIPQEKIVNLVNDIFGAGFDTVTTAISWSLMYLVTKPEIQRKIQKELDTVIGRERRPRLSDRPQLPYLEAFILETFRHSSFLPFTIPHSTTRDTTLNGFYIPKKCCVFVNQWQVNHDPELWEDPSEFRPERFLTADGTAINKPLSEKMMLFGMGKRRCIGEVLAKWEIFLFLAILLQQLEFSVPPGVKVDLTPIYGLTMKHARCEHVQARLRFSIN

[11] = target: Luciferin 4-monooxygenase (Photinus pyralis, UniProt P08659); experiment: firefly luciferase enzyme inhibitors, dose response, biochemical, luminescence (AID 1891)
Chain of Luciferin 4-monooxygenase (P08659 whole entry): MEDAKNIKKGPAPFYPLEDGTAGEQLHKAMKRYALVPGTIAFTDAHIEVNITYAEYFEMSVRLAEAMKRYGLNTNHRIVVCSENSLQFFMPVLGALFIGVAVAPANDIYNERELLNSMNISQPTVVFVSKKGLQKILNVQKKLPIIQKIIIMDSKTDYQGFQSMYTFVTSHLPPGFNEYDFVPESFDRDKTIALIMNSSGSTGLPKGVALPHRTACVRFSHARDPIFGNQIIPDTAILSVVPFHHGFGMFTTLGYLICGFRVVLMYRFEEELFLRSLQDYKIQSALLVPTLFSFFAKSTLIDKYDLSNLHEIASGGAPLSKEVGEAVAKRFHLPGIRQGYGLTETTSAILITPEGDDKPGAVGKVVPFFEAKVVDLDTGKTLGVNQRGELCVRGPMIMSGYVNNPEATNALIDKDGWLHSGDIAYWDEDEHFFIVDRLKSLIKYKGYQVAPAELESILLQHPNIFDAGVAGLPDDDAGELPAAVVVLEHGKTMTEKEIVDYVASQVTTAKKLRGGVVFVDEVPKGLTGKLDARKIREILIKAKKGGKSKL

[12] = Luminescence Cell-Based Dose Confirmation HTS to Identify Inhibitors of Platelet Dense Granule Release. [Related pubchem assays: 1663 (Primary HTS), 1678 (Summary of Project)]; assay type: functional
[13] = target: T1, G-protein coupled receptor 55; experiment: GPR55 antagonists blocking LPI-driven arrestin recruitment, primary screen, imaging, U2OS, beta-arrestin-GFP, LPI agonist (AID 2013); assay type: functional;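 also: antagonist potency measured as reduced agonist-driven arrestin aggregation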
INS1 = experiment: beta cell apoptosis inhibitors, cytokine rescue, dose response, luminescence, retest (AID 449756); assay type: functional, cell-based; conditions: Rattus norvegicus, INS1;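 also: cell death triggered by IL-1 beta plus TNF-alpha plus IFN-gamma mixture; protective hits raise ATP signal compared with cytokine alone wells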
[14] = HepG2 cell cytotoxicity, dose response, cytotoxicity control for non-replicating M. tuberculosis project (AID 489018); assay type: functional; conditions: Mycobacterium tuberculosis
[15] = cytotoxicity toward NIH3T3 fibroblasts, dose response, counter-screen, cell-based, ATP luminescence, mouse fibroblasts (AID 2010); assay type: functional;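 also: cells exposed to compound for about 90 hours before reading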
[16] = THP-1 cell cytotoxicity, dose response, cytotoxicity control for non-replicating M. tuberculosis project (AID 489025); assay type: functional
[17] = inhibitors of intracellular T. cruzi replication, confirmation, NIH3T3 host cells, beta-gal luminescence (AID 2044); assay type: functional, cell-based;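 also: intracellular parasites grown in NIH/3T3 mouse fibroblasts as host cells; luminescent beta-galactosidase reporter signal from transgenic T. cruzi replicating inside host cells; inhibitors lower the luminescence signal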
[18] = Vero E6 cell cytotoxicity, dose response, cytotoxicity control for non-replicating M. tuberculosis project, secondary assay (AID 492998); assay type: functional, VeroE6; conditions: Vero C1008
[19] = target: FAD-linked sulfhydryl oxidase ALR (Homo sapiens, UniProt P55789); experiment: inhibitors of human ALR sulfhydryl oxidase, dose response, biochemical, H2O2 detection, luminescence, cherry-pick (AID 493248)
Chain of FAD-linked sulfhydryl oxidase ALR (P55789 whole entry): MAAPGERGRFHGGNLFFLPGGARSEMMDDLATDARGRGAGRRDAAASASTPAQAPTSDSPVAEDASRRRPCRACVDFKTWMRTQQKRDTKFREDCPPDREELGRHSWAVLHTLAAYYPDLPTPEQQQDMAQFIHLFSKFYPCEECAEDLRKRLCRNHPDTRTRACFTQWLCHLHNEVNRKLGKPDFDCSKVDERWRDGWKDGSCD

cells = assay type: functional
[20] = HepG2 cell cytotoxicity, dose response, cytotoxicity control, ATP luminescence, cherry-pick, activator set 2 (AID 1053143); assay type: functional, cell-based
[21] = target: T6, Ubiquitin-conjugating enzyme E2 N (Homo sapiens, UniProt P61088); assay type: functional;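 also: Dose-response confirmation in a TR-FRET assay detecting UBC13-driven polyubiquitin chain formation, inhibition measured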
T6 sequence (P61088 whole entry): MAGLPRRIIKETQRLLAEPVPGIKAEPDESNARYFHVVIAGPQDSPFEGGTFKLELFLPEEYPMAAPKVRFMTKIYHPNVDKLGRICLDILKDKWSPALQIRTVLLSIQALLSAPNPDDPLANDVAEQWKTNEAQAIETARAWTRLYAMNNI

Paired box protein Pax-8 = Paired box protein Pax-8 (Homo sapiens, UniProt Q06710); experiment: inhibitors of PAX8-driven TPO luciferase reporter, dose response, RMG-I cells, cherry-pick (AID 687027); assay type: functional, cell-based;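 also: luciferase reporter driven by Pax8 target thyroperoxidase promoter measured by SteadyGlo luminescence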
Chain of Paired box protein Pax-8 (Q06710 whole entry): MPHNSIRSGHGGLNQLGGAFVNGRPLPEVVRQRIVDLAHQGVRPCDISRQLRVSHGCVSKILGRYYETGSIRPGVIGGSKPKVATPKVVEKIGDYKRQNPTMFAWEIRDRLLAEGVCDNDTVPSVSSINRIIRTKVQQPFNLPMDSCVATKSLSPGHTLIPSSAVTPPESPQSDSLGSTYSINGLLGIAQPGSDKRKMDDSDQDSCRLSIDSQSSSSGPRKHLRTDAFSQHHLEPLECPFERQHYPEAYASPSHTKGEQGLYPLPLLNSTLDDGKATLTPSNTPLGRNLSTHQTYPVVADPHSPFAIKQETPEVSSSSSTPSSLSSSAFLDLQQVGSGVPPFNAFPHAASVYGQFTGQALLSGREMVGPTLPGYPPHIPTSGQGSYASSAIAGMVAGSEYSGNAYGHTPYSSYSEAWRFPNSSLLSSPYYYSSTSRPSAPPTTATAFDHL

[22] = Luminescent dose response cell-based high throughput screening assay for inhibitors of the Janus kinase 2 mutant JAK2V617F. [Related pubchem assays: 1446 (Primary screen.), 1521 (Confirmation assay.), 1486 (Counter screen.)]; assay type: functional
Aminopeptidase N = target: T7, Aminopeptidase N (Plasmodium falciparum FcB1/Columbia, UniProt O96935); experiment: P. falciparum M1AAP inhibitors, biochemical, fluorogenic H-Leu-NHMec substrate, 1536-well (AID 1445); parameters: species or system Plasmodium falciparum 3D7, 3D7
T7 sequence (O96935 whole entry): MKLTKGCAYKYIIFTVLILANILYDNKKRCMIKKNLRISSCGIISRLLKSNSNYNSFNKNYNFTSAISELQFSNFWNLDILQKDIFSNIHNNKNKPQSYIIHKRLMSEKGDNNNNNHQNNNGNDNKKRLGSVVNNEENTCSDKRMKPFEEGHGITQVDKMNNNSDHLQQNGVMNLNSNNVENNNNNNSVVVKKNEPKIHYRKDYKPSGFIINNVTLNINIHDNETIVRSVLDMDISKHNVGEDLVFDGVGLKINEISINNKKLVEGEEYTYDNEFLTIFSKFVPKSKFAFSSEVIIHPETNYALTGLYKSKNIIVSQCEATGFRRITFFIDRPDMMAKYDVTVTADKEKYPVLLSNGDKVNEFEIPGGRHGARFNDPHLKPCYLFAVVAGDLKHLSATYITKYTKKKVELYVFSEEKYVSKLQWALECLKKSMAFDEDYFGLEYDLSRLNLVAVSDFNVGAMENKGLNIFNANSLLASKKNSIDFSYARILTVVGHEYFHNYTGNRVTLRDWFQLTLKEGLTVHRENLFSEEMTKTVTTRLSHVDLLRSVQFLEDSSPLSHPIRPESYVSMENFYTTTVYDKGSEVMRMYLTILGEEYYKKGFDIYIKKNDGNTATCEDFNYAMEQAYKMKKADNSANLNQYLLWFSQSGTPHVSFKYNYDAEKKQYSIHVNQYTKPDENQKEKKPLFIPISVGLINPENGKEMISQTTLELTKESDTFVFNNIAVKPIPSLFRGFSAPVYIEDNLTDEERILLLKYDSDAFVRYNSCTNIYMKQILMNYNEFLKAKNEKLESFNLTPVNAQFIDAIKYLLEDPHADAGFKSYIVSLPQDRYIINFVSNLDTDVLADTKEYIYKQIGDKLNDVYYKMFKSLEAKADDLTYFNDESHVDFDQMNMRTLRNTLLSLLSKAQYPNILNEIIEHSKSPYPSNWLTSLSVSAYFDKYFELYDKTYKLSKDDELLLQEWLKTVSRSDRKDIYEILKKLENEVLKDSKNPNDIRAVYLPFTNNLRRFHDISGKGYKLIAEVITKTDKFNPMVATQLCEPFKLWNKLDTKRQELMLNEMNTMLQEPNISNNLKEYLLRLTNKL

Chain of Disintegrin and metalloproteinase domain-containing protein 17 (P78536 whole entry, the tested form may be a part): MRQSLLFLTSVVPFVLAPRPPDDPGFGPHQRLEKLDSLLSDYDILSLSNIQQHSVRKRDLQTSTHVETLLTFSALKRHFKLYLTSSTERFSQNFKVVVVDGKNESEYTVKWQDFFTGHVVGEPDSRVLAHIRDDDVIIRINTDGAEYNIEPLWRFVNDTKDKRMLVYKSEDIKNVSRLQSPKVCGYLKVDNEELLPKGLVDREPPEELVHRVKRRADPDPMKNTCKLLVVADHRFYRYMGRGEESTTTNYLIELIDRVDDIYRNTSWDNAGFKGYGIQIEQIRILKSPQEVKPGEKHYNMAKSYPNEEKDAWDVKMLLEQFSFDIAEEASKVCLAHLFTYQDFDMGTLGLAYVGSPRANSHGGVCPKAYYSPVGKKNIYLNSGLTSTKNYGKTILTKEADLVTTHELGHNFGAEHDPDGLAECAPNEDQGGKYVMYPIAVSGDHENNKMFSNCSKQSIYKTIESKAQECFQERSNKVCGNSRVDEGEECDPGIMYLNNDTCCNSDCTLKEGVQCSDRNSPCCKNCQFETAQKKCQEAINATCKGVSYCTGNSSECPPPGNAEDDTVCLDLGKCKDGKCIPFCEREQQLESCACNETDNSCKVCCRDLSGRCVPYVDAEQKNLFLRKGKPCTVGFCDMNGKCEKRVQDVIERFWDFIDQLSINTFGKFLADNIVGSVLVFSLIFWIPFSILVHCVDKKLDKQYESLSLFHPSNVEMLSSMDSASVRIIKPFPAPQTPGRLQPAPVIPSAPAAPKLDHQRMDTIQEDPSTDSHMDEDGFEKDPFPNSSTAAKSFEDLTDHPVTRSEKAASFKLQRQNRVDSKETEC

Cc1ccc(C(=O)N2CCN(C3c4cccc5cccc(c45)C3NS(=O)(=O)c3ccccc3)CC2)cc1 (configuration not stated)
IC50 [1]: > 69.5 µM (inactive)
EC50 [2]: 3.68 µM (active)
IC50 [3]: > 69.5 µM (inactive)

Cc1ccc(-c2cc(-c3ccccc3)c(C#N)c(Br)n2)cc1
EC50 [4]: 58.2 µM (not active)
EC50 [5]: 34.1 µM (not active)
AC50 (Trypsin): 11.9 µM (active)
EC50 [6]: 58.7 µM (not active)

CCCOc1ccc(/C=C2/C(=O)ON=C2C)cc1Cl
EC50 [2]: > 32 µM (inactive)

O=c1c2ccccc2sn1-c1ccc(Cl)c(S(=O)(=O)N2CCOCC2)c1
IC50 [7]: 8.58 µM (active)
IC50 (Phosphomannomutase 2): 55.3 µM (active)
IC50 [8]: 1.07 µM (inactive)
IC50 [9]: > 100 µM (inactive)

O=C(Oc1c(Br)cc(C(=S)N2CCOCC2)cc1Br)c1ccc(Cl)cc1
IC50 [10]: > 64 µM (inactive)
AC50 (Cytochrome P450 1A2): 17.8 µM (inconclusive)

COc1ccc(-c2nc(-c3ccc(Br)cc3)no2)c(OC)c1
IC50 [10]: > 64 µM (inactive)
EC50 [11]: > 112 µM (not active)
EC50 [12]: > 112 µM (not active)

CCOC(=O)c1cc(C#N)c(Oc2ccccc2)nc1-c1ccccc1
IC50 [13]: 1.69 µM (active)

CN(C)CCCNc1cc(C(C)(C)C)nc2c(-c3ccccc3)cnn12
AC50 (INS1): 13.8 µM (active)
CC50 [14]: > 20 µM (active)
EC50 [15]: 4.96 µM (active)
CC50 [16]: 24.5 µM (active)
EC50 [17]: 0.574 µM (active)
CC50 [18]: > 20 µM (active)
AC50 [19]: 2.53 µM (active)
IC50 (cells): 19.8 µM (active)
AC50 [20]: 15.5 µM (active)
IC50 [21]: > 20 µM (inactive)

O=C(Nc1cccc(NC(=O)c2cccs2)c1)c1ccc([N+](=O)[O-])o1
AC50 (Paired box protein Pax-8): 4.04 µM (active)
CC50 [14]: 11 µM (active)
EC50 [15]: > 60 µM (not active)
CC50 [16]: 7.45 µM (active)
IC50 [22]: 1.57 µM (active)
IC50 (Aminopeptidase N): 49.8 µM (active)
EC50 [17]: 0.104 µM (active)
CC50 [18]: 11.9 µM (active)
IC50 (cells): 4.05 µM (active)
